Legend:
Assay type in all cases: functional
MCF7 = assay: Growth inhibition of human MCF7 cells assessed as cell growth at 10^-8 M incubated for 48 hrs by sulforhodamine B assay relative to control; conditions: MCF7, 48 h, read-out: Activity
NCI-H460 = assay: Growth inhibition of human NCI-H460 cells assessed as cell growth at 10^-5 M incubated for 48 hrs by sulforhodamine B assay relative to control; conditions: NCI-H460, 48 h, read-out: Activity
UACC-257 = assay: Growth inhibition of human UACC257 cells assessed as cell growth at 10^-5 M incubated for 48 hrs by sulforhodamine B assay relative to control; conditions: UACC-257, 48 h, read-out: Activity

With `CCCCOc1nc2ccccc2cc1C1CNC(=O)c2ccccc2N1` (stereo not drawn) the growth at 0.01 µM (MCF7) was 88%, the growth at 10 µM (NCI-H460) was 5% and the growth at 10 µM (UACC-257) was 48%.

From ChEMBL document CHEMBL4138146, “A Schmidt rearrangement-mediated synthesis of novel tetrahydro-benzo[1,4]diazepin-5-ones as potential anticancer and antiprotozoal agents” (Eur J Med Chem, 2017)
